Legend:
[1] = molecular target: Cyclin-dependent kinase 11B (Homo sapiens) (UniProt P21127); conditions: Compound concentration 1000.0 nM
[2] = molecular target: Casein kinase I isoform gamma-2 (Homo sapiens) (UniProt P78368); conditions: Compound concentration 1000.0 nM
[3] = molecular target: Activin receptor type-2A (Homo sapiens) (UniProt P27037); conditions: Compound concentration 1000.0 nM
[4] = tested on: Epidermal growth factor receptor (Homo sapiens), P00533 [T790M]; conditions: Compound concentration 1000.0 nM
[5] = molecular target: Inhibitor of nuclear factor kappa-B kinase subunit beta (Homo sapiens) (UniProt O14920); conditions: Compound concentration 1000.0 nM
[6] = molecular target: Macrophage colony-stimulating factor 1 receptor (Homo sapiens) (UniProt P07333); conditions: Compound concentration 1000.0 nM
[7] = molecular target: Cyclin-dependent kinase 7 (Homo sapiens) (UniProt P50613); conditions: Compound concentration 1000.0 nM
[8] = molecular target: Discoidin domain-containing receptor 2 (Homo sapiens) (UniProt Q16832); conditions: Compound concentration 1000.0 nM
[9] = molecular target: TGF-beta receptor type-2 (Homo sapiens) (UniProt P37173); conditions: Compound concentration 1000.0 nM
[10] = molecular target: Homeodomain-interacting protein kinase 1 (Homo sapiens) (UniProt Q86Z02); conditions: Compound concentration 1000.0 nM
[11] = tested on: Tyrosine-protein kinase ABL1 (Homo sapiens), P00519 [H396P]; conditions: Compound concentration 1000.0 nM
[12] = molecular target: Cyclin-dependent kinase 9 (Homo sapiens) (UniProt P50750); conditions: Compound concentration 1000.0 nM
[13] = tested on: Tyrosine-protein kinase ABL1 (Homo sapiens), P00519 [Q252H]; conditions: Compound concentration 1000.0 nM
[14] = molecular target: 5'-AMP-activated protein kinase catalytic subunit alpha-1 (Homo sapiens) (UniProt Q13131); conditions: Compound concentration 1000.0 nM
[15] = molecular target: Atypical kinase COQ8B, mitochondrial (Homo sapiens) (UniProt Q96D53); conditions: Compound concentration 1000.0 nM
[16] = tested on: Epidermal growth factor receptor (Homo sapiens), P00533 [L858R]; conditions: Compound concentration 1000.0 nM
[17] = molecular target: Protein kinase C epsilon type (Homo sapiens) (UniProt Q02156); conditions: Compound concentration 1000.0 nM
[18] = molecular target: Alpha-2C adrenergic receptor (Homo sapiens) (UniProt P18825); conditions: Compound concentration 10.0 uM
[19] = molecular target: Ephrin type-B receptor 2 (Homo sapiens) (UniProt P29323); conditions: Compound concentration 1000.0 nM
[20] = molecular target: Phosphatidylinositol 5-phosphate 4-kinase type-2 gamma (Homo sapiens) (UniProt Q8TBX8); conditions: Compound concentration 1000.0 nM
[21] = molecular target: Serine/threonine-protein kinase RIO1 (Homo sapiens) (UniProt Q9BRS2); conditions: Compound concentration 1000.0 nM
Rattus norvegicus = organism: Rattus norvegicus; conditions: Compound concentration 10.0 uM
[22] = tested on: Epidermal growth factor receptor (Homo sapiens), P00533 [UNDEFINED MUTATION]; conditions: Compound concentration 1000.0 nM
[23] = molecular target: Serine/threonine-protein kinase tousled-like 2 (Homo sapiens) (UniProt Q86UE8); conditions: Compound concentration 1000.0 nM
[24] = tested on: Epidermal growth factor receptor (Homo sapiens), P00533 [UNDEFINED MUTATION]; conditions: Compound concentration 1000.0 nM; remark: listed apart in the source
[25] = molecular target: Serine/threonine-protein kinase PAK 1 (Homo sapiens) (UniProt Q13153); conditions: Compound concentration 1000.0 nM
[26] = tested on: Tyrosine-protein kinase ABL1 (Homo sapiens), P00519 [F317I]; conditions: Compound concentration 1000.0 nM
[27] = molecular target: Peripheral plasma membrane protein CASK (Homo sapiens) (UniProt O14936); conditions: Compound concentration 1000.0 nM
[28] = molecular target: Serine/threonine-protein kinase Sgk3 (Homo sapiens) (UniProt Q96BR1); conditions: Compound concentration 1000.0 nM
[29] = molecular target: Serine/threonine-protein kinase PknB (Mycobacterium tuberculosis) (UniProt P9WI81); conditions: Compound concentration 1000.0 nM
[30] = molecular target: Cyclin-dependent kinase-like 5 (Homo sapiens) (UniProt O76039); conditions: Compound concentration 1000.0 nM
[31] = molecular target: Ribosomal protein S6 kinase alpha-3 (Homo sapiens) (UniProt P51812); conditions: Compound concentration 1000.0 nM
[32] = molecular target: Serine/threonine-protein kinase MRCK gamma (Homo sapiens) (UniProt Q6DT37); conditions: Compound concentration 1000.0 nM
[33] = molecular target: Megakaryocyte-associated tyrosine-protein kinase (Homo sapiens) (UniProt P42679); conditions: Compound concentration 1000.0 nM
[34] = molecular target: Calcium/calmodulin-dependent protein kinase type IV (Homo sapiens) (UniProt Q16566); conditions: Compound concentration 1000.0 nM
[35] = molecular target: Ephrin type-A receptor 3 (Homo sapiens) (UniProt P29320); conditions: Compound concentration 1000.0 nM
[36] = molecular target: Dual specificity testis-specific protein kinase 1 (Homo sapiens) (UniProt Q15569); conditions: Compound concentration 1000.0 nM
[37] = molecular target: SNF-related serine/threonine-protein kinase (Homo sapiens) (UniProt Q9NRH2); conditions: Compound concentration 1000.0 nM
[38] = molecular target: Mitogen-activated protein kinase kinase kinase 7 (Homo sapiens) (UniProt O43318); conditions: Compound concentration 1000.0 nM
[39] = molecular target: Dual specificity protein kinase CLK4 (Homo sapiens) (UniProt Q9HAZ1); conditions: Compound concentration 1000.0 nM
[40] = molecular target: Serine/threonine-protein kinase 10 (Homo sapiens) (UniProt O94804); conditions: Compound concentration 1000.0 nM
[41] = molecular target: Serine/threonine-protein kinase MAK (Homo sapiens) (UniProt P20794); conditions: Compound concentration 1000.0 nM
[42] = molecular target: D(1B) dopamine receptor (Homo sapiens) (UniProt P21918); conditions: Compound concentration 10.0 uM
[43] = molecular target: Tyrosine-protein kinase JAK2 (Homo sapiens) (UniProt O60674); conditions: Compound concentration 1000.0 nM
[44] = molecular target: Mitogen-activated protein kinase kinase kinase 3 (Homo sapiens) (UniProt Q99759); conditions: Compound concentration 1000.0 nM
[45] = molecular target: Serine/threonine-protein kinase VRK2 (Homo sapiens) (UniProt Q86Y07); conditions: Compound concentration 1000.0 nM

Chain of Ephrin type-B receptor 2 (Homo sapiens) (P29323 whole entry): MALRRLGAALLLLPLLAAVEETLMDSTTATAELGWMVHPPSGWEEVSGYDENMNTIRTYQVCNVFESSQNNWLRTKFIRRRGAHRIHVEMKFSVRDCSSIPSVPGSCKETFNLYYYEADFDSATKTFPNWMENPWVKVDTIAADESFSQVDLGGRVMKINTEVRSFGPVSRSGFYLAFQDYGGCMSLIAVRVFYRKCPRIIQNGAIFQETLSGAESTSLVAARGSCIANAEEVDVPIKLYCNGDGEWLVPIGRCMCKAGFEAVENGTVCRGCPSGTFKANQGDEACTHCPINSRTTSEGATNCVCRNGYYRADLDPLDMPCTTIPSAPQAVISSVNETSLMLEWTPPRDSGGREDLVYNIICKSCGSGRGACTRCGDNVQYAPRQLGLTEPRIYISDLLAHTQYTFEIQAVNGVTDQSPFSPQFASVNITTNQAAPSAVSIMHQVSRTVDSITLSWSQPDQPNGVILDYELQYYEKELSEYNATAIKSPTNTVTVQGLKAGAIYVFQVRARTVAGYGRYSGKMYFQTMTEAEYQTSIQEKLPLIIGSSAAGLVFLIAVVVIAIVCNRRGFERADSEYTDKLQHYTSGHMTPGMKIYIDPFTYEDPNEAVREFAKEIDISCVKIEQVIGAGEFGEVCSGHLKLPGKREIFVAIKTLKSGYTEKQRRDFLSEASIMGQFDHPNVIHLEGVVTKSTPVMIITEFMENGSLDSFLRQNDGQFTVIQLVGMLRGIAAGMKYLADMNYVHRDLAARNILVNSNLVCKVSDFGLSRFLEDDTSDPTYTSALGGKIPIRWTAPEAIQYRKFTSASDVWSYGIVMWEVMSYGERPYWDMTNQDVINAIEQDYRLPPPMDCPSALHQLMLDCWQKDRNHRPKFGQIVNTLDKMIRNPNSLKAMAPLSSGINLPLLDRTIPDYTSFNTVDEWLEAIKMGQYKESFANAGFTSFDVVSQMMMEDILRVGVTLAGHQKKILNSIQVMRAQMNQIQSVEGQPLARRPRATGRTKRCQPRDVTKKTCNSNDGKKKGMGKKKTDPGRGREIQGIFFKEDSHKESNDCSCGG
Chain of Cyclin-dependent kinase 7 (Homo sapiens) (P50613 whole entry, the tested form may be a part): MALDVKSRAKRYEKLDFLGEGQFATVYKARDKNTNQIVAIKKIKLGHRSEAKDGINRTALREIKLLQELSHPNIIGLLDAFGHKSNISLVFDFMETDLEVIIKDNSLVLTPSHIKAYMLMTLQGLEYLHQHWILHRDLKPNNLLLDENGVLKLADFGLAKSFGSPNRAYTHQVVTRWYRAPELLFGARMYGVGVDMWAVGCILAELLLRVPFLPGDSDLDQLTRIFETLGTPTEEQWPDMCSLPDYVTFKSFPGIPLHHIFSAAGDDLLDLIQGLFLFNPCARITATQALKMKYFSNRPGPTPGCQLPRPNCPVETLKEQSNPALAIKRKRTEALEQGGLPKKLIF
Chain of Mitogen-activated protein kinase kinase kinase 7 (Homo sapiens) (O43318 whole entry): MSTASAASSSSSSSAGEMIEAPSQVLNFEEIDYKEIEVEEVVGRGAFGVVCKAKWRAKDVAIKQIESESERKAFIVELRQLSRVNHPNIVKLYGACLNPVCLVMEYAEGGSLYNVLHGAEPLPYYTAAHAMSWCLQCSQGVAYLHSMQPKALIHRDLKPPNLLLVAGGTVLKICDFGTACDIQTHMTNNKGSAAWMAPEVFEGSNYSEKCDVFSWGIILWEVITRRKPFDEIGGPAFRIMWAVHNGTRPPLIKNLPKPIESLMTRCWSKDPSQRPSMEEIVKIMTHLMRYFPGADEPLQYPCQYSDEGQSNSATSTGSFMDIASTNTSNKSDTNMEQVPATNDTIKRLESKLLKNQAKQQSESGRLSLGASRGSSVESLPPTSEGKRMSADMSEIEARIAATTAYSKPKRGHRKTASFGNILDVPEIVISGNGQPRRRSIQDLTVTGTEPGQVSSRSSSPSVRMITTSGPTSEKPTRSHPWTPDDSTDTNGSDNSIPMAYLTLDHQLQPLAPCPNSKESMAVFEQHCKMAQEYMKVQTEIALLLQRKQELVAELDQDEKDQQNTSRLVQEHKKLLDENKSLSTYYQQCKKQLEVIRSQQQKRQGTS
Chain of Tyrosine-protein kinase JAK2 (Homo sapiens) (O60674 whole entry): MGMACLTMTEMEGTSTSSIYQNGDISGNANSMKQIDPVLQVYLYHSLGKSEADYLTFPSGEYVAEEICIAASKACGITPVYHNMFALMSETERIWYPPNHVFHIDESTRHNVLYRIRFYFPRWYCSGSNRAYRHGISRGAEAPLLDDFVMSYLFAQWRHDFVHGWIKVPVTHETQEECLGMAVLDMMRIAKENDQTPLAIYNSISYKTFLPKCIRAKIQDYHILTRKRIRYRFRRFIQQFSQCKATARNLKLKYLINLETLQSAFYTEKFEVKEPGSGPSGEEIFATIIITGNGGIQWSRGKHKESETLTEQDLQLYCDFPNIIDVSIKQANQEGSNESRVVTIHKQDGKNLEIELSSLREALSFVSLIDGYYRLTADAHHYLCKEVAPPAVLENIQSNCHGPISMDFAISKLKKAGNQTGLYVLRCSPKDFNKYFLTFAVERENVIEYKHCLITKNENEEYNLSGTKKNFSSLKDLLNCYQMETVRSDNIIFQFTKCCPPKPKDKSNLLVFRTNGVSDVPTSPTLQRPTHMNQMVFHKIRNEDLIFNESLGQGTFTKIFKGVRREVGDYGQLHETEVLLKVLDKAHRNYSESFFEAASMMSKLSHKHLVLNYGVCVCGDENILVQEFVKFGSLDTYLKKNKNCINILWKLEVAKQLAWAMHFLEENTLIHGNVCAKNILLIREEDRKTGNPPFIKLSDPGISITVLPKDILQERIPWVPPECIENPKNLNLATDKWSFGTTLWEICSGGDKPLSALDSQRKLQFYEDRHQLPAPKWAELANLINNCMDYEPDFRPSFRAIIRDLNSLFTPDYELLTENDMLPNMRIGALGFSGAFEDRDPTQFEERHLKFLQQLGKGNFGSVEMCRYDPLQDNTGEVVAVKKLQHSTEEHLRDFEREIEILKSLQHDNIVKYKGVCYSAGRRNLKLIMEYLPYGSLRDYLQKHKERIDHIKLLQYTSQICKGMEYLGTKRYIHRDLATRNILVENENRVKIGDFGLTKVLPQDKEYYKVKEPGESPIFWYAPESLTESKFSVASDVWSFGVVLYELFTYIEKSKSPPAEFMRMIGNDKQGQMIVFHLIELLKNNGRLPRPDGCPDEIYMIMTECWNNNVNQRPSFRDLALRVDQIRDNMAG
Chain of Serine/threonine-protein kinase RIO1 (Homo sapiens) (Q9BRS2 whole entry): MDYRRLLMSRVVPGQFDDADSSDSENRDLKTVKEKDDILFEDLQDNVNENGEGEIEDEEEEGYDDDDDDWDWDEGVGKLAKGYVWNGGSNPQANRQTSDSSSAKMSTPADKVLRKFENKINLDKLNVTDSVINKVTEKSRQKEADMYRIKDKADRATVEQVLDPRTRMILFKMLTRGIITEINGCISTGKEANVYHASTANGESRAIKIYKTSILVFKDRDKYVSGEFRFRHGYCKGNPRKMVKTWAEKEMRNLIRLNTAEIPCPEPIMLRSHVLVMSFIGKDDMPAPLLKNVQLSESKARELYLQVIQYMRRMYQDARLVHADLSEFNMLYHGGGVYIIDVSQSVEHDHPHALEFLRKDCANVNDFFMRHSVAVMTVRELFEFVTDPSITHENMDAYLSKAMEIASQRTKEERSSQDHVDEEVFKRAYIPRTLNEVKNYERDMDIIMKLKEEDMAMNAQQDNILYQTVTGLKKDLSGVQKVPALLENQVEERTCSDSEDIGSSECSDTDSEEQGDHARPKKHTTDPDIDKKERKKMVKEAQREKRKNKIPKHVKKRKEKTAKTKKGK
Chain of Phosphatidylinositol 5-phosphate 4-kinase type-2 gamma (Homo sapiens) (Q8TBX8 whole entry): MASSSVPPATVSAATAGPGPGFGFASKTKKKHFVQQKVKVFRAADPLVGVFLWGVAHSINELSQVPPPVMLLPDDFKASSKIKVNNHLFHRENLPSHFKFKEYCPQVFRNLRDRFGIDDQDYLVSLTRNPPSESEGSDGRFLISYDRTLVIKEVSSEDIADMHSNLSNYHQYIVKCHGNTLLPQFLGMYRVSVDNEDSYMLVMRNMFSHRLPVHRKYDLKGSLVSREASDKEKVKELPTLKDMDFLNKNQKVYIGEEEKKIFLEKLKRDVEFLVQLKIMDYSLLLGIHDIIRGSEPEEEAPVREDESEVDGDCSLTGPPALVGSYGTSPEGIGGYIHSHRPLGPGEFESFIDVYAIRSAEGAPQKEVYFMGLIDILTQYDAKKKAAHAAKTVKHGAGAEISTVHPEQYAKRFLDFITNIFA
Chain of Mitogen-activated protein kinase kinase kinase 3 (Homo sapiens) (Q99759 whole entry): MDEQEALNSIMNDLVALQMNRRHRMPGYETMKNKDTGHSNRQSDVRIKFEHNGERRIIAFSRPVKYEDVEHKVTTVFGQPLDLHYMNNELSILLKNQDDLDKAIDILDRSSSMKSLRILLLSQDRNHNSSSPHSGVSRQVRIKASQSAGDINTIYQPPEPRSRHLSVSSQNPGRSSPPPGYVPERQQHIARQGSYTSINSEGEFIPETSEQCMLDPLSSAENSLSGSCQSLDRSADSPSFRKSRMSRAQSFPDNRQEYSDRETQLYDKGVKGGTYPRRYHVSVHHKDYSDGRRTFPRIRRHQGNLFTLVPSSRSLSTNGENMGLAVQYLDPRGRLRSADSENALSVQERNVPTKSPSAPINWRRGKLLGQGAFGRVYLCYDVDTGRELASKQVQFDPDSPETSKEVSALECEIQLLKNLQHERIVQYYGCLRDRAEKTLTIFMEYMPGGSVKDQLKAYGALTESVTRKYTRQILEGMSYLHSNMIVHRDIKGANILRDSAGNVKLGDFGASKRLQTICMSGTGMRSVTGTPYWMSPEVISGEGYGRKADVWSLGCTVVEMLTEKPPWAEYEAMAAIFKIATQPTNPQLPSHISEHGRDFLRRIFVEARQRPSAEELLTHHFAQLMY

For `CC(=O)c1c(NS(C)(=O)=O)c2cc(-c3ccc(Cl)cc3)c(-c3ccc(Cl)cc3Cl)nc2n(C)c1=O` [MRL-CB1-NC], the residual activity [1] was 84%, the residual activity [2] was 100% and the residual activity [3] was 100%. It also gave a residual activity [4] of 64%, a residual activity [5] of 98% and a residual activity [6] of 100%. The residual activity [7] was 82%, the residual activity [8] was 96% and the residual activity [9] was 100%. It also gave a residual activity [10] of 96%, a residual activity [11] of 100% and a residual activity [12] of 91%. For the same compound, the residual activity [13] was 100%, the residual activity [14] was 100% and the residual activity [15] was 97%. The residual activity [16] was 98%, the residual activity [17] was 96% and the inhibition [18] was 78.9%. It also gave a residual activity [19] of 100%, a residual activity [20] of 100% and a residual activity [21] of 100%. For the same compound, the inhibition (Rattus norvegicus) was 36.9%, the residual activity [22] was 100% and the residual activity [23] was 99%. For the same compound, the residual activity [24] was 100%, the residual activity [25] was 96% and the residual activity [26] was 76%. The residual activity [27] was 92%, the residual activity [28] was 79% and the residual activity [29] was 83%. For the same compound, the residual activity [30] was 94%, the residual activity [31] was 100% and the residual activity [32] was 100%. The residual activity [33] was 83%, the residual activity [34] was 100% and the residual activity [35] was 92%. For the same compound, the residual activity [36] was 100%, the residual activity [37] was 98% and the residual activity [38] was 83%. It also gave a residual activity [39] of 100%, a residual activity [40] of 100% and a residual activity [41] of 93%. The inhibition [42] was 44.5%, the residual activity [43] was 97% and the residual activity [44] was 100%. For the same compound, the residual activity [45] was 100%.
In the case of `CC(=O)Nc1c(C(C)=O)c(=O)n(C)c2nc(-c3ccc(Cl)cc3Cl)c(-c3ccc(Cl)cc3)cc12` [NAPHTHYRIDINONE], the residual activity [1] is reported as 83%, the residual activity [2] is reported as 100% and the residual activity [3] is reported as 100%. The residual activity [4] was 100%, the residual activity [5] was 100% and the residual activity [6] was 100%. The residual activity [7] was 100%, the residual activity [8] was 100% and the residual activity [9] was 100%. It also gave a residual activity [10] of 99%, a residual activity [11] of 100% and a residual activity [12] of 100%. For the same compound, the residual activity [13] was 100%, the residual activity [14] was 100% and the residual activity [15] was 100%. It also gave a residual activity [16] of 100%, a residual activity [17] of 48% and an inhibition [18] of 3.44%. For the same compound, the residual activity [19] was 100%, the residual activity [20] was 100% and the residual activity [21] was 100%. It also gave an inhibition (Rattus norvegicus) of 82.7%, a residual activity [22] of 100% and a residual activity [23] of 100%. The residual activity [24] was 92%, the residual activity [25] was 100% and the residual activity [26] was 77%. The residual activity [27] was 83%, the residual activity [28] was 100% and the residual activity [29] was 100%. For the same compound, the residual activity [30] was 100%, the residual activity [31] was 99% and the residual activity [32] was 100%. It also gave a residual activity [33] of 100%, a residual activity [34] of 100% and a residual activity [35] of 100%. It also gave a residual activity [36] of 100%, a residual activity [37] of 78% and a residual activity [38] of 100%. It also gave a residual activity [39] of 100%, a residual activity [40] of 100% and a residual activity [41] of 100%. The inhibition [42] was 5.24%, the residual activity [43] was 100% and the residual activity [44] was 100%. For the same compound, the residual activity [45] was 100%.
